Laboratory results: ChEMBL document CHEMBL6177951, “Synthesis and anti-MRSA activity of quaternized small molecule antimicrobial peptide mimics based on norharmane” (Eur J Med Chem, 2025)
≈ marks a conversion by molar mass, not a printed value.

Tests used:
Assay type in all cases: functional
[1] = tested on: Staphylococcus aureus; test: Antibacterial activity against Staphylococcus aureus ATCC 25923 assessed as inhibition of bacterial growth incubated for 14 hrs by two-fold serial dilution method
[2] = tested on: Staphylococcus aureus; test: Antibacterial activity against Staphylococcus aureus ATCC 29213 assessed as inhibition of bacterial growth incubated for 14 hrs by two-fold serial dilution method
[3] = tested on: Staphylococcus aureus; test: Antibacterial activity against Staphylococcus aureus CMCC 26003 assessed as inhibition of bacterial growth incubated for 14 hrs by two-fold serial dilution method
[4] = tested on: Staphylococcus aureus; test: Antibacterial activity against methicillin-resistant Staphylococcus aureus ATCC 43300 assessed as inhibition of bacterial growth incubated for 14 hrs by two-fold serial dilution method
[5] = tested on: Staphylococcus aureus; test: Antibacterial activity against methicillin-resistant Staphylococcus aureus ATCC 33591 assessed as inhibition of bacterial growth incubated for 14 hrs by two-fold serial dilution method
[6] = tested on: Staphylococcus aureus; test: Antibacterial activity against methicillin-resistant Staphylococcus aureus clinical isolate M-13 incubated for 14 hrs by two-fold serial dilution method
[7] = tested on: Staphylococcus aureus; test: Antibacterial activity against methicillin-resistant Staphylococcus aureus clinical isolate M-14 incubated for 14 hrs by two-fold serial dilution method
[8] = tested on: Staphylococcus aureus; test: Antibacterial activity against methicillin-resistant Staphylococcus aureus clinical isolate M-15 incubated for 14 hrs by two-fold serial dilution method
[9] = tested on: Staphylococcus aureus; test: Antibacterial activity against methicillin-resistant Staphylococcus aureus clinical isolate M-16 incubated for 14 hrs by two-fold serial dilution method
[10] = tested on: Staphylococcus aureus; test: Antibacterial activity against methicillin-resistant Staphylococcus aureus clinical isolate M-17 incubated for 14 hrs by two-fold serial dilution method
[11] = tested on: Staphylococcus aureus; test: Antibacterial activity against methicillin-resistant Staphylococcus aureus clinical isolate M-18 incubated for 14 hrs by two-fold serial dilution method
[12] = tested on: Staphylococcus aureus; test: Antibacterial activity against methicillin-resistant Staphylococcus aureus clinical isolate M-19 incubated for 14 hrs by two-fold serial dilution method
[13] = tested on: Staphylococcus aureus; test: Antibacterial activity against methicillin-resistant Staphylococcus aureus clinical isolate M-20 incubated for 14 hrs by two-fold serial dilution method
[14] = tested on: Staphylococcus aureus; test: Antibacterial activity against methicillin-resistant Staphylococcus aureus clinical isolate M-21 incubated for 14 hrs by two-fold serial dilution method
[15] = tested on: Staphylococcus aureus; test: Antibacterial activity against methicillin-resistant Staphylococcus aureus clinical isolate M-22 incubated for 14 hrs by two-fold serial dilution method
[16] = tested on: Staphylococcus aureus; test: Antibacterial activity against methicillin-resistant Staphylococcus aureus clinical isolate M-23 incubated for 14 hrs by two-fold serial dilution method

| Structure (SMILES) | MIC [1] [mg/L] | MIC [2] [mg/L] | MIC [3] [mg/L] | MIC [4] [mg/L] | MIC [5] [mg/L] | MIC [6] [mg/L] | MIC [7] [mg/L] | MIC [8] [mg/L] | MIC [9] [mg/L] | MIC [10] [mg/L] | MIC [11] [mg/L] | MIC [12] [mg/L] | MIC [13] [mg/L] | MIC [14] [mg/L] | MIC [15] [mg/L] | MIC [16] [mg/L] |
| --- | --- | --- | --- | --- | --- | --- | --- | --- | --- | --- | --- | --- | --- | --- | --- | --- |
| c1ccc2c(c1)c1ccncc1n2CCCCCCCCCCn1c2ccccc2c2ccncc21 | > 128 | > 128 | > 128 | > 128 | > 128 |  |  |  |  |  |  |  |  |  |  |  |
| CCN(CC)CCn1c2ccccc2c2ccncc21 | 64 (≈ 239 µM) | 128 (≈ 479 µM) | 128 (≈ 479 µM) | 128 (≈ 479 µM) | 128 (≈ 479 µM) |  |  |  |  |  |  |  |  |  |  |  |
| CCN(CC)CCn1c2ccccc2c2cc[n+](CC)cc21.[Br-] | 32 | > 128 | 32 | > 128 | 128 |  |  |  |  |  |  |  |  |  |  |  |
| CC[n+]1ccc2c3ccccc3n(CC[N+](C)(C)CC)c2c1.[Br-].[Br-] | 128 | > 128 | > 128 | > 128 | > 128 |  |  |  |  |  |  |  |  |  |  |  |
| C[n+]1ccc2c3ccccc3n(CCCCCCCCCCCCn3c4ccccc4c4cc[n+](C)cc43)c2c1.[I-].[I-] | 1 | 0.5 | 0.5 | 1 | 0.5 | 1 | 1 | 1 | 1 | 1 | 1 | 1 | 1 | 1 | 1 | 1 |
| c1ccc2c3c([nH]c2c1)CNCC3 [TRYPTOLINE] | 128 (≈ 743 µM) | > 128 | 128 (≈ 743 µM) | 128 (≈ 743 µM) | 128 (≈ 743 µM) |  |  |  |  |  |  |  |  |  |  |  |
| CCCCC[n+]1ccc2c3ccccc3n(CC[N+](C)(C)CCCCC)c2c1.[Br-].[Br-] | 128 | > 128 | > 128 | > 128 | > 128 |  |  |  |  |  |  |  |  |  |  |  |
| C[n+]1ccc2c3ccccc3n(CCCCCCCCCCn3c4ccccc4c4cc[n+](C)cc43)c2c1.[I-].[I-] | 2 | 1 | 0.5 | 2 | 0.5 | 1 | 1 | 2 | 1 | 2 | 2 | 2 | 1 | 2 | 1 | 2 |
| CC[n+]1ccc2c3ccccc3n(CC[N+](CC)(CC)CC)c2c1.[Br-].[Br-] | 128 | > 128 | > 128 | > 128 | > 128 |  |  |  |  |  |  |  |  |  |  |  |
| CC[N+](C)(CC)CCn1c2ccccc2c2cc[n+](C)cc21.[I-].[I-] | 128 | > 128 | > 128 | > 128 | > 128 |  |  |  |  |  |  |  |  |  |  |  |
| c1ccc2c(c1)[nH]c1cnccc12 [NORHARMANE] | 32 (≈ 190 µM) | 64 (≈ 381 µM) | 64 (≈ 381 µM) | 64 (≈ 381 µM) | 64 (≈ 381 µM) |  |  |  |  |  |  |  |  |  |  |  |
| c1ccc2c(c1)c1ccncc1n2CCCCCCCCCn1c2ccccc2c2ccncc21 | > 128 | > 128 | > 128 | > 128 | > 128 |  |  |  |  |  |  |  |  |  |  |  |
